Test results as given in patent USRE32393E, “Composition for enhancing the administration of pharmacologically active agents” (KabiVitrum AB, priority 1967, dated 1987).
Structures can show the parent of a compound that is named as a salt.

How the values were obtained:
[1] = intravenous toxicity (LD50, survival time) of mecamylamine preparations in mice; format: in vivo, male albino mice of the NMRI strain; settings: mouse, in vivo, 1% preparations, fiducial limits at P = 0.05
Description: (§1) Mecamylamine (3-methylaminoisocamphane hydrochloride) is a ganglion-blocking secondary amine, and as a base, it is an oily liquid which is soluble in lipids. Its toxicity (LD50) after intravenous administration has been estimated in male albino mice of the NMRI strain in accordance with the method of the Nordic Pharmacopoeia. The following preparations were used:
(§2) Mecamylamine hydrochloride, 1% dissolved in saline
(§3) Mecamylamine base, dissolved in soybean oil and emulsified in the conventional way. Final concentration 1%.
(§4) Mecamylamine base, directly emulsified in 5.5% glucose solution with the aid of Pluronic F-68 (a registered trade mark for a nonionic emulsifier consisting of a block polymer of ethylene oxide and propylene oxide, from Wyandotte Chemical Corporation, described on page 392 of the Extra Pharmacopoeia, Martindale, 26th Edition) and an ultrasonic apparatus (20.000 Hz). Final concentration 1%.
(§5) The injections were given in the dorsal tail vein at a speed of 0.1 ml per 5 seconds.

[2] = test system: male albino mice of the NMRI strain; test: as above; format: in vivo; settings: ± S.E.
Description: as §1, §2, §3, §4, §5

[3] = test system: chloralose-anaesthetized cat; test: effect on blood pressure in chloralose-anaesthetized cat; format: in vivo; settings: intravenous
Procedure: The effects of the emulsion on the blood pressure when given intravenously in a dose of 5-10 mg/kg was registered on a chloralose-anaesthetized cat.

mouse = test: sleeping time in mouse (loss of righting reflex); format: in vivo; settings: single dose
Description: The sleeping time after a single dose injection of the emulsion was shorter than the sleeping time after injection of an aqueous solution of sodium hexobarbital:
In accordance with common practice, the sleeping time has been set as the duration of the loss of the righting reflex.

[4] = test system: hind leg of cats anaesthetized with chloralose; settings: intraarterial, about 1-2 mg/kg
[5] = pH value of phenyramidol preparations; format: physicochemical; settings: aqueous solution

CNC1(C)C2CCC(C2)C1(C)C (stereo not drawn) [Mecamylamine HCl, 3-methylaminoisocamphane hydrochloride]
LD50 [1]: 16.3 mg/kg
Survival time (time from the injections to death) [2]: 55 ± 5.1 s

CN1C(=O)NC(=O)C(C)(C2=CCCCC2)C1=O (stereo not drawn) [sodium hexobarbital]
duration of blood pressure depression, emulsion and sodium hexobarbital solution [3]: about the same duration
depression of blood pressure ([3]; 5-10 mg/kg): about 6 mm Hg
Sleeping time (mouse; 72 mg/kg): 172 s
Sleeping time (mouse; 86 mg/kg): 905 s

CC1CC(OC(=O)C(O)c2ccccc2)CC(C)(C)C1 (stereo not drawn) [Cyclandelate, 3,5,5-trimethylcyclohexyl mandelate]
onset of vasodilatation [4]: within a few seconds
vasodilatation ([4]; especially in noradrenaline induced vasoconstriction): marked vasodilatation

OC(CNc1ccccn1)c1ccccc1 (stereo not drawn) [phenyramidol hydrochloride]
pH value compared with the emulsion [5]: lower pH value
